Assay results reported in patent US12180193B2, “Accelerating fibrosarcoma protein degrading compounds and associated methods of use” (Arvinas Operations, Inc., priority 2020, dated 2024).

How the values were obtained:
[1] = molecular target: T1, BRAF V600E (Homo sapiens, UniProt P15056, V600E); test: Cellular assay of target protein degradation, T-Rex 293 cells stably transfected with HA-BRAF_V600E (HA immunofluorescence, high content imaging); type: cell-based; conditions: T-Rex 293 HA-BRAF V600E; for DC50: half maximal degradation, read-out: BRaf V600E DC50; for Dmax: maximum degradation observed
T1 construct: expressed in transfected cells
T1 sequence (P15056 whole entry V600E): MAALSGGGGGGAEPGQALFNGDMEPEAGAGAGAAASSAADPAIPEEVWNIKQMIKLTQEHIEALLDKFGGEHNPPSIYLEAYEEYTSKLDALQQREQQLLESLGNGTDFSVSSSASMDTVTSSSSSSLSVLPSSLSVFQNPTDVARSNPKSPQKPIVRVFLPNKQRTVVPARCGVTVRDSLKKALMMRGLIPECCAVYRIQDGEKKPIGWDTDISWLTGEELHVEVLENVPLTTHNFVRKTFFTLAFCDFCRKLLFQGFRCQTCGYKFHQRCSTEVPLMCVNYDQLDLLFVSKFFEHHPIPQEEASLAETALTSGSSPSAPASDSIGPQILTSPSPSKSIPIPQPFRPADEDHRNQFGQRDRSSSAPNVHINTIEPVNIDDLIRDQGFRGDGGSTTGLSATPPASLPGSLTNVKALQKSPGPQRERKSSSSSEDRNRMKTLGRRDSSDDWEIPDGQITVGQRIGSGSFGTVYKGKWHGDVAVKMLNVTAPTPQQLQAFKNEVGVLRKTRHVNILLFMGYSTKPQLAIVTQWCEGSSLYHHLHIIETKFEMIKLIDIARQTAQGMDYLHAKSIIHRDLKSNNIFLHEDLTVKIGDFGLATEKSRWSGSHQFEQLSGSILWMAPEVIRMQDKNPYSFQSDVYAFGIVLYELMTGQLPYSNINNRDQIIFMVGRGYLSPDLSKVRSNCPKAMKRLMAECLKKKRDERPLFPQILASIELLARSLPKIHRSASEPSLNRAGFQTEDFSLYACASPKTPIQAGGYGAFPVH
Outline: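 HA immunofluorescence on fixed cells, imaged by high-content reader, measured loss of HA-BRAF V600E in stably transfected T-Rex 293 cells induced with 1 ng/mL doxycycline. Compounds were applied for 24 h at 37 °C (final 0.1 nM–1 μM, 0.1% DMSO); DC50 and Dmax (% of control) were reported.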

[2] = molecular target: T2, BRAF G466V (Homo sapiens, UniProt P15056, G466V); test: Cellular assay of target protein degradation, T-Rex 293 cells stably transfected with HA-BRAF G466V (HA immunofluorescence, high content imaging); type: cell-based; conditions: T-Rex 293 HA-BRAF G466V; for DC50: half maximal degradation, read-out: BRaf G466V DC50; for Dmax: maximum degradation observed
T2 construct: expressed in transfected cells
T2 sequence (P15056 whole entry G466V): as the sequence (P15056 whole entry V600E) above, with G466V, E600V counted along it
Outline: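 HA-BRAF G466V levels were read by HA immunofluorescence and high-content imaging after 24 h compound exposure (final 30 nM–3 pM, 0.1% DMSO, 37 °C). Expression was induced with 0.75 ng/mL doxycycline. Outputs: half-maximal degradation concentration (DC50) and maximal degradation (Dmax) relative to control.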

Row | DC50 [1] [nM] | Dmax [1] [%] | DC50 [2] [nM] | Dmax [2] [%] | SMILES
1 | 5 to 50 | 35 to 70 | 1 to 10 | > 70 | COc1cc(N2CC3(CN(CCc4ccc(-c5cnc6[nH]cc(C(=O)c7c(F)ccc(NS(=O)(=O)N8CC[C@@H](F)C8)c7F)c6c5)cc4)C3)C2)ccc1C(=O)NC1CCC(=O)NC1=O (stereo partly drawn) [Compound 362, 4-{6-[2-(4-{3-[2,6-difluoro-3-({[(3R)-3-fluoropyrrolidin-1-yl]sulfonyl}amino)benzoyl]-1H-pyrrolo[2,3-b]pyridin-5-yl}phenyl)ethyl]-2,6-diazaspiro[3.3]heptan-2-yl}-N-(2,6-dioxopiperidin-3-yl)-2-methoxybenzamide]
2 | 50 to 500 | < 35 | 1 to 10 | 35 to 70 | C[C@@]12CN(CC3CCN(c4ccc5c(c4)CN([C@@H]4CCC(=O)NC4=O)C5=O)CC3)C[C@@H]1CN(c1ccc(-c3cnc4[nH]cc(C(=O)c5c(F)ccc(NS(=O)(=O)N6CC[C@@H](F)C6)c5F)c4c3)cc1)C2 [Compound 52, (3R)-N-[3-(5-{4-[(3aS,6aR)-5-[(1-{2-[(3R)-2,6-dioxopiperidin-3-yl]-1-oxo-2,3-dihydro-1H-isoindol-5-yl}piperidin-4-yl)methyl]-3a-methyl-octahydropyrrolo[3,4-c]pyrrol-2-yl]phenyl}-1H-pyrrolo[2,3-b]pyridine-3-carbonyl)-2,4-difluorophenyl]-3-fluoropyrrolidine-1-sulfonamide]
3 | 5 to 50 | 35 to 70 | < 1 | 35 to 70 | COc1cc(OCCN2CCN(CCOc3ccc(-c4cnc5[nH]cc(C(=O)c6c(F)ccc(NS(=O)(=O)N7CC[C@@H](F)C7)c6F)c5c4)cc3)CC2)cc2c1C(=O)N([C@@H]1CCC(=O)NC1=O)C2 [Compound 45, (3R)-N-(3-{5-[4-(2-{4-[2-({2-[(3R)-2,6-dioxopiperidin-3-yl]-7-methoxy-1-oxo-2,3-dihydro-1H-isoindol-5-yl}oxy)ethyl]piperazin-1-yl}ethoxy)phenyl]-1H-pyrrolo[2,3-b]pyridine-3-carbonyl}-2,4-difluorophenyl)-3-fluoropyrrolidine-1-sulfonamide]
4 | > 500 |  | 10 to 30 | 35 to 70 | O=C1CCC(N2Cc3cc(N4CC5(CC(CN6CCCc7cc(-c8cnc9[nH]cc(C(=O)c%10c(F)ccc(NS(=O)(=O)N%11CC[C@@H](F)C%11)c%10F)c9c8)ccc76)C5)C4)ccc3C2=O)C(=O)N1 (stereo partly drawn) [Compound 47, (3R)-N-(3-{5-[1-({2-[2-(2,6-dioxopiperidin-3-yl)-1-oxo-2,3-dihydro-1H-isoindol-5-yl]-2-azaspiro[3.3]heptan-6-yl}methyl)-1,2,3,4-tetrahydroquinolin-6-yl]-1H-pyrrolo[2,3-b]pyridine-3-carbonyl}-2,4-difluorophenyl)-3-fluoropyrrolidine-1-sulfonamide]
5 | 5 to 50 | < 35 | 1 to 10 | > 70 | O=C1CCC(N2Cc3cc(N4CCCN(CC5CCN(c6ccc(-c7cnc8[nH]cc(C(=O)c9c(F)ccc(NS(=O)(=O)N%10CC[C@@H](F)C%10)c9F)c8c7)cc6)CC5)CC4)ccc3C2=O)C(=O)N1 (stereo partly drawn) [Compound 324, (3R)-N-[3-(5-{4-[4-({4-[2-(2,6-dioxopiperidin-3-yl)-1-oxo-2,3-dihyrdo-1H-isoindol-5-yl]-1,4-diazepan-1-yl}methyl)piperidin-1-yl]phenyl}-1H-pyrrolo[2,3-b]pyridine-3-carbonyl)-2,4-difluorophenyl]-3-fluoropyrrolidine-1-sulfonamide]
6 | 5 to 50 | 35 to 70 | 1 to 10 | > 70 | C[C@@H]1C[C@H](CN2CCC(c3ccc4c(c3)CN([C@H]3CCC(=O)NC3=O)C4=O)CC2)CCN1c1ccc(-c2cnc3[nH]cc(C(=O)c4c(F)ccc(NS(=O)(=O)N5CC[C@@H](F)C5)c4F)c3c2)cc1 [Compound 241, (3R)-N-[3-(5-{4-[(2R,4R)-4-[(4-{2-[(3S)-2,6-dioxopiperidin-3-yl]-1-oxo-2,3-dihydro-1H-isoindol-5-yl}piperidin-1-yl)methyl]-2-methylpiperidin-1-yl]phenyl}-1H-pyrrolo[2,3-b]pyridine-3-carbonyl)-2,4-difluorophenyl]-3-fluoropyrrolidine-1-sulfonamide]
7 | 5 to 50 | 35 to 70 | 1 to 10 | 35 to 70 | N#Cc1cc(-c2cnc3[nH]cc(C(=O)c4c(F)ccc(NS(=O)(=O)N5CC[C@@H](F)C5)c4F)c3c2)cc(C#N)c1N1CCC(CN2CCC(c3ccc4c(c3)CN([C@H]3CCC(=O)NC3=O)C4=O)CC2)CC1 [Compound 260, (3R)-N-{3-[5-(3,5-dicyano-4-{4-[(4-{2-[(3S)-2,6-dioxopiperidin-3-yl]-1-oxo-2,3-dihydro-1H-isoindol-5-yl}piperidin-1-yl)methyl]piperidin-1-yl}phenyl)-1H-pyrrolo [2,3-b]pyridine-3-carbonyl]-2,4-difluorophenyl}-3-fluoropyrrolidine-1-sulfonamide]
8 | 50 to 500 | > 70 | < 1 | 35 to 70 | O=C1CC[C@H](N2Cc3cc(C4CN(CC5CCN(c6ccc(-c7cnc8[nH]cc(C(=O)c9c(F)ccc(NS(=O)(=O)N%10CC[C@@H](F)C%10)c9F)c8c7)cc6)CC5)C4)ccc3C2=O)C(=O)N1 [Compound 83, (3R)-N-{3-[5-(4-{4-[(3-{2-[(3S)-2,6-dioxopiperidin-3-yl]-1-oxo-2,3-dihydro-1H-isoindol-5-yl}azetidin-1-yl)methyl]piperidin-1-yl}phenyl)-1H-pyrrolo[2,3-b]pyridine-3-carbonyl]-2,4-difluorophenyl}-3-fluoropyrrolidine-1-sulfonamide]
9 | 5 to 50 | 35 to 70 | 1 to 10 | > 70 | O=C1CC[C@H](N2Cc3cc(C[C@@H](O)CN4CC5(C4)CN(c4ccc(-c6cnc7[nH]cc(C(=O)c8c(F)ccc(NS(=O)(=O)N9CC[C@@H](F)C9)c8F)c7c6)cc4)C5)ccc3C2=O)C(=O)N1 [Compound 128, (3R)-N-{3-[5-(4-{6-[(2R)-3-{2-[(3S)-2,6-dioxopiperidin-3-yl]-1-oxo-2,3-dihydro-1H-isoindol-5-yl}-2-hydroxypropyl]-2,6-diazaspiro[3.3]heptan-2-yl}phenyl)-1H-pyrrolo[2,3-b]pyridine-3-carbonyl]-2,4-difluorophenyl}-3-fluoropyrrolidine-1-sulfonamide]
10 | 5 to 50 | 35 to 70 | 1 to 10 | > 70 | O=C1CC[C@H](N2Cc3cc(OC[C@H](O)CN4CC5(C4)CN(c4ccc(-c6cnc7[nH]cc(C(=O)c8c(F)ccc(NS(=O)(=O)N9CC[C@@H](F)C9)c8F)c7c6)cc4)C5)ccc3C2=O)C(=O)N1 [Compound 123, (3R)—N-[3-[5-[4-[6-[(2R)-3-[2-[(3S)-2,6-dioxo-3-piperidyl]-1-oxo-isoindolin-5-yl]oxy-2-hydroxy-propyl]-2,6-diazaspiro[3.3]heptan-2-yl]phenyl]-1H-pyrrolo[2,3-b]pyridine-3-carbonyl]-2,4-difluoro-phenyl]-3-fluoro-pyrrolidine-1-sulfonamide]
